Measurements published in PubChem BioAssay AID2060883 (Molecular Pharmacology Branch, DTP, NCI, 2025).

System: 843782-103-R-J1-PDC complex spheroid viability
Assay: Anticancer human tumor 843782-103-R-J1-PDC patient-derived lung adenocarcinoma cell line growth inhibition [RAS]
Conditions: for IC50: curve of first compound; for viability, T/C: stronger effect = lower value
Method in brief: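 Tumour cells grown as complex spheroids with HUVEC endothelial cells and mesenchymal stem cells, treated with RAS pathway inhibitor combinations. Each agent spans half-log steps from near clinical Cmax, or 10 microM where Cmax is unknown.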
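Also: viability read after seven days of compound exposure.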

With `CCN1CCN(Cc2ccc(Nc3ncc(F)c(-c4cc(F)c5nc(C)n(C(C)C)c5c4)n3)nc2)CC1` + C=CC(=O)N1CCN(c2nc(OCC3CCCN3C)nc3c(F)c(-c4nc(N)cc(C)c4C(F)(F)F)c(Cl)cc23)C(C)C1 the IC50 (second compound 0.00316 µM) was 988 nM, the IC50 (second compound 0.01 µM) was 471 nM and the IC50 (second compound 0.0316 µM) was 697 nM. The IC50 (second compound 0.1 µM) was 764 nM, the IC50 (second compound 0.316 µM) was greater than 1000 nM and the IC50 (second compound 1 µM) was 836 nM. For the same molecule, the viability, T/C (second compound 0.00316 µM, first compound 0.00316 µM) was 86.1%, the viability, T/C (second compound 0.00316 µM, first compound 0.01 µM) was 93.4% and the viability, T/C (second compound 0.00316 µM, first compound 0.0316 µM) was 88.5%. The viability, T/C (second compound 0.00316 µM, first compound 0.1 µM) was 86.3%, the viability, T/C (second compound 0.00316 µM, first compound 0.316 µM) was 68.1% and the viability, T/C (second compound 0.00316 µM, first compound 1 µM) was 49.8%. The viability, T/C (second compound 0.01 µM, first compound 0.00316 µM) was 88.4%, the viability, T/C (second compound 0.01 µM, first compound 0.01 µM) was 86.6% and the viability, T/C (second compound 0.01 µM, first compound 0.0316 µM) was 86.3%. It also gave a viability, T/C (second compound 0.01 µM, first compound 0.1 µM) of 74.9%, a viability, T/C (second compound 0.01 µM, first compound 0.316 µM) of 53.8% and a viability, T/C (second compound 0.01 µM, first compound 1 µM) of 43%. For the same molecule, the viability, T/C (second compound 0.0316 µM, first compound 0.00316 µM) was 83.1%, the viability, T/C (second compound 0.0316 µM, first compound 0.01 µM) was 83.7% and the viability, T/C (second compound 0.0316 µM, first compound 0.0316 µM) was 81.4%. For the same molecule, the viability, T/C (second compound 0.0316 µM, first compound 0.1 µM) was 79.8%, the viability, T/C (second compound 0.0316 µM, first compound 0.316 µM) was 65.5% and the viability, T/C (second compound 0.0316 µM, first compound 1 µM) was 42.2%. The viability, T/C (second compound 0.1 µM, first compound 0.00316 µM) was 89.5%, the viability, T/C (second compound 0.1 µM, first compound 0.01 µM) was 81% and the viability, T/C (second compound 0.1 µM, first compound 0.0316 µM) was 81.5%. The viability, T/C (second compound 0.1 µM, first compound 0.1 µM) was 80%, the viability, T/C (second compound 0.1 µM, first compound 0.316 µM) was 60.7% and the viability, T/C (second compound 0.1 µM, first compound 1 µM) was 46.7%. For the same molecule, the viability, T/C (second compound 0.316 µM, first compound 0.00316 µM) was 88.9%, the viability, T/C (second compound 0.316 µM, first compound 0.01 µM) was 86% and the viability, T/C (second compound 0.316 µM, first compound 0.0316 µM) was 83.7%. The viability, T/C (second compound 0.316 µM, first compound 0.1 µM) was 71.9%, the viability, T/C (second compound 0.316 µM, first compound 0.316 µM) was 62.5% and the viability, T/C (second compound 0.316 µM, first compound 1 µM) was 57.7%. It also gave a viability, T/C (second compound 1 µM, first compound 0.00316 µM) of 91.1%, a viability, T/C (second compound 1 µM, first compound 0.01 µM) of 83.2% and a viability, T/C (second compound 1 µM, first compound 0.0316 µM) of 86.7%. The viability, T/C (second compound 1 µM, first compound 0.1 µM) was 78.3%, the viability, T/C (second compound 1 µM, first compound 0.316 µM) was 63.5% and the viability, T/C (second compound 1 µM, first compound 1 µM) was 47.5%.
For `CC(C)n1nc(-c2ccc3oc(N)nc3c2)c2c(N)ncnc21` + CCn1c(-c2cc(N3CCN(C)CC3)cnc2C(C)OC)c2c3cc(ccc31)-c1csc(n1)CC(NC(=O)C1CC1C)C(=O)N1CCCC(N1)C(=O)OCC(C)(C)C2, the IC50 (second compound 0.000949 µM) was 5.34 nM, the IC50 (second compound 0.003 µM) was 3.42 nM and the IC50 (second compound 0.00949 µM) was less than 0.316 nM. The IC50 (second compound 0.03 µM) was less than 0.316 nM, the IC50 (second compound 0.0949 µM) was less than 0.316 nM and the IC50 (second compound 0.3 µM) was less than 0.316 nM. For the same molecule, the viability, T/C (second compound 0.000949 µM, first compound 0.000316 µM) was 73%, the viability, T/C (second compound 0.000949 µM, first compound 0.001 µM) was 70.4% and the viability, T/C (second compound 0.000949 µM, first compound 0.00316 µM) was 58.7%. It also gave a viability, T/C (second compound 0.000949 µM, first compound 0.01 µM) of 38.6%, a viability, T/C (second compound 0.000949 µM, first compound 0.0316 µM) of 24.8% and a viability, T/C (second compound 0.000949 µM, first compound 0.1 µM) of 13.5%. The viability, T/C (second compound 0.003 µM, first compound 0.000316 µM) was 49.6%, the viability, T/C (second compound 0.003 µM, first compound 0.001 µM) was 57.5% and the viability, T/C (second compound 0.003 µM, first compound 0.00316 µM) was 52.5%. For the same molecule, the viability, T/C (second compound 0.003 µM, first compound 0.01 µM) was 27.7%, the viability, T/C (second compound 0.003 µM, first compound 0.0316 µM) was 19.7% and the viability, T/C (second compound 0.003 µM, first compound 0.1 µM) was 11%. It also gave a viability, T/C (second compound 0.00949 µM, first compound 0.000316 µM) of 36.5%, a viability, T/C (second compound 0.00949 µM, first compound 0.001 µM) of 36.6% and a viability, T/C (second compound 0.00949 µM, first compound 0.00316 µM) of 28.2%. For the same molecule, the viability, T/C (second compound 0.00949 µM, first compound 0.01 µM) was 19.7%, the viability, T/C (second compound 0.00949 µM, first compound 0.0316 µM) was 11.6% and the viability, T/C (second compound 0.00949 µM, first compound 0.1 µM) was 7.59%. It also gave a viability, T/C (second compound 0.03 µM, first compound 0.000316 µM) of 22.3%, a viability, T/C (second compound 0.03 µM, first compound 0.001 µM) of 19.4% and a viability, T/C (second compound 0.03 µM, first compound 0.00316 µM) of 13.2%. For the same molecule, the viability, T/C (second compound 0.03 µM, first compound 0.01 µM) was 12.6%, the viability, T/C (second compound 0.03 µM, first compound 0.0316 µM) was 7.81% and the viability, T/C (second compound 0.03 µM, first compound 0.1 µM) was 4.67%. The viability, T/C (second compound 0.0949 µM, first compound 0.000316 µM) was 15.6%, the viability, T/C (second compound 0.0949 µM, first compound 0.001 µM) was 13.8% and the viability, T/C (second compound 0.0949 µM, first compound 0.00316 µM) was 12.8%. It also gave a viability, T/C (second compound 0.0949 µM, first compound 0.01 µM) of 10.3%, a viability, T/C (second compound 0.0949 µM, first compound 0.0316 µM) of 7.44% and a viability, T/C (second compound 0.0949 µM, first compound 0.1 µM) of 4.77%. For the same molecule, the viability, T/C (second compound 0.3 µM, first compound 0.000316 µM) was 13.9%, the viability, T/C (second compound 0.3 µM, first compound 0.001 µM) was 13.4% and the viability, T/C (second compound 0.3 µM, first compound 0.00316 µM) was 10.7%. It also gave a viability, T/C (second compound 0.3 µM, first compound 0.01 µM) of 9.85%, a viability, T/C (second compound 0.3 µM, first compound 0.0316 µM) of 6.87% and a viability, T/C (second compound 0.3 µM, first compound 0.1 µM) of 3.78%.
